How the values were obtained:
Assay in all cases: MIC, broth microdilution (NCCLS)
Format in all cases: cell-based
[1] = tested on: Streptococcus pyogenes Stpy_8668
Experimental: (§1) Strains. The bacterial isolates listed in Table 4 were cultivated from −70° C. frozen stocks by two consecutive overnight passages (P1, P2) at 35° C. on 5% blood agar (Remel, Lenexa, Kans.). Chocolate agar (Remel) is used for Haemophilus influenzae. H. influenzae and Streptococcus pneumoniae are incubated in 5-10% CO2
(§2) Drug Stock Preparation. To determine the amount of solvent to be used to give the desired final concentration, the formula “weight obtained in mg/final concentration in mg/ml” will be used. It will give the amount of solvent in ml needed to be added to give the desired concentration. For example, if 2.5 mg/ml is the desired concentration and the weight of compound is 13.7 mg, then the amount of solvent to be added is […]. Methanol is used as the solvent to dissolve the test compounds. Further dilution of stock is done in sterile, deionized water. Drug stocks are kept frozen at −70° C., protected from light.
(§3) Susceptibility Testing. MICs are determined by the broth microdilution method in accordance with the NCCLS guidelines. In brief, organism suspensions are adjusted to a 0.5 McFarland standard to yield a final inoculum between 3×10^5 and 7×10^5 CFU/ml. Drug dilutions and inocula are made in sterile, cation adjusted Mueller-Hinton Broth (CAMHB) (Remel) for all but S. pneumoniae [CAMHB with 2-5% lysed horse blood (Remel)] and H. influenzae [Haemophilus Test Medium (Remel)]. An inoculum volume of 100 μl is added to wells containing 100 μl of broth with 2-fold serial dilutions of drug. All inoculated microdilution trays are incubated in ambient air at 35° C. for 18-24 hours, except for S. pneumoniae, and H. influenzae (both at 5-10% CO2).
(§4) Following appropriate incubation, the MIC is determined and the MIC is defined as the lowest concentration of the drug that prevented visible growth.
as §1, with “8” for “4”
(§5) Following appropriate incubation, the MIC is determined and the MIC is defined as the lowest concentration of the drug that prevented visible growth. […] Antibacterial activity of representative compounds of the invention were compared against telitromycin.

[2] = tested on: Streptococcus pneumoniae Stpn_49619
Experimental: as §1, §2, §3, §4
as §1, with “8” for “4”
as §5

[3] = tested on: Streptococcus pneumoniae Stpn_297-749
Experimental: as §1, §2, §3, §4
as §1, with “8” for “4”
as §5

[4] = tested on: Streptococcus pneumoniae Stpn_280-962
Experimental: as §1, §2, §3, §4
as §1, with “8” for “4”
as §5

[5] = Table 7, Strain ID F (Table 6): S. pneumoniae Stpn_49619
[6] = Table 7, Strain ID G (Table 6): S. pneumoniae Stpn_297-749
[7] = Table 7, Strain ID H (Table 6): S. pneumoniae Stpn_280-962
[8] = Table 7, Strain ID E (Table 6): S. pyogenes Stpy_8668

| SMILES | MIC ([1]; Table 5, Strain ID D (Table 4): S. pyogenes Stpy_8668) | MIC ([2]; Table 5, Strain ID E (Table 4): S. pneumoniae Stpn_49619) | MIC ([3]; Table 5, Strain ID F (Table 4): S. pneumoniae Stpn_297-749 Pen R) | MIC ([4]; Table 5, Strain ID G (Table 4): S. pneumoniae Stpn_280-962 Pen S) | MIC [2, 5] | MIC [3, 6] | MIC [4, 7] | MIC [1, 8] |
| --- | --- | --- | --- | --- | --- | --- | --- | --- |
| CC[C@H]1OC(=O)[C@H](C)[C@@H](O[C@H]2C[C@@](C)(OC)[C@@H](O)[C@H](C)O2)[C@H](C)[C@@H](O[C@@H]2O[C@H](C)C[C@H](N(C)C)[C@H]2O)[C@](C)(OC)C[C@@H](C)C(=O)[C@H](C)[C@@H](O)[C@]1(C)O [Clar., clarithromycin, reference compound] | =0.05 | =0.05 | =0.05 | =0.05 | – | – | – | – |
| CC[C@H]1OC(=O)[C@@](C)(F)C(=O)[C@H](C)[C@@H](OC2O[C@H](C)C[C@H](N(C)C)[C@H]2O)[C@@](C)(OC)C[C@@H](C)C(=O)[C@H](C)[C@H]2N(CCCCc3ccnc4ccccc34)C(=O)O[C@]12CC (stereo partly drawn) [Example 17, (3aS,4R,7S,9R,10R,11S,13R,15R,15aR)-3a,4-diethyl-7-fluoro-11-methoxy-7,9,11,13,15-pentamethyl-2,6,8,14-tetraoxo-1-(4-quinolin-4-ylbutyl)tetradecahydro-2H-oxacyclotetradecino[4,3-d][1,3]oxazol-10-yl-3,4,6-trideoxy-3-(dimethylamino)-D-xylo-hexopyranoside] | – | – | – | – | =0.05 | =0.05 | =0.05 | – |
| CC[C@H]1OC(=O)[C@@](C)(F)C(=O)[C@H](C)[C@@H](OC2O[C@H](C)C[C@H](N(C)C)[C@H]2O)[C@@](C)(OC)C[C@@H](C)C(=O)[C@H](C)[C@H]2N(CCCCc3ccc4ccccc4n3)C(=O)O[C@]12CC (stereo partly drawn) [Example 19, (3aS,4R,7S,9R,10R,11S,13R,15R,15aR)-3a,4-diethyl-7-fluoro-11-methoxy-7,9,11,13,15-pentamethyl-2,6,8,14-tetraoxo-1-(4-quinolin-2-ylbutyl)tetradecahydro-2H-oxacyclotetradecino[4,3-d][1,3]oxazol-10-yl-3,4,6-trideoxy-3-(dimethylamino)-D-xylo-hexopyranoside] | – | – | – | – | =0.05 | =0.05 | =0.05 | – |
| CC[C@H]1OC(=O)[C@H](C)C(=O)[C@H](C)[C@@H](OC2O[C@H](C)C[C@H](N(C)C)[C@H]2O)[C@@](C)(OC)C[C@@H](C)C(=O)[C@H](C)[C@H]2N(CCCCn3cnc(-c4cccnc4)c3C)C(=O)O[C@]12CC (stereo partly drawn) [Example 21, (3aS,4R,7R,9R,10R,11S,13R,15R,15aR)-3a,4-DIETHYL-11-METHOXY-7,9,11,13,15-PENTAMETHYL-1-[4-(5-METHYL-4-PYRIDIN-3-YL-1H-IMIDAZOL-1-YL)BUTYL]-2,6,8,14-TETRAOXOTETRADECAHYDRO-2H-OXACYCLOTETRADECINO[4,3-D][1,3]OXAZOL-10-YL-3,4,6-TRIDEOXY-3-(DIMETHYLAMINO)-D-XYLO-HEXOPYRANOSIDE] | – | – | – | – | =0.05 | =0.05 | =0.05 | =0.05 |
| CC[C@H]1OC(=O)[C@H](C)C(=O)[C@H](C)[C@@H](OC2O[C@H](C)C[C@H](N(C)C)[C@H]2O)[C@@](C)(OC)C[C@@H](C)C(=O)[C@H](C)[C@H]2N(CCCCn3cnc4ncccc43)C(=O)O[C@]12CC (stereo partly drawn) [Example 22, (3aS,4R,7R,9R,10R,11S,13R,15R,15aR)-3a,4-diethyl-1-[4-(1H-imidazo[4,5-b]pyridin-1-yl)butyl]-11-methoxy-7,9,11,13,15-pentamethyl-2,6,8,14-tetraoxotetradecahydro-2H-oxacyclotetradecino[4,3-d][1,3]oxazol-10-yl-3,4,6-trideoxy-3-(dimethylamino)-D-xylo-hexopyranoside] | – | – | – | – | =0.05 | =0.05 | =0.05 | =0.05 |
| CC[C@H]1OC(=O)[C@H](C)C(=O)[C@H](C)[C@@H](OC2O[C@H](C)C[C@H](N(C)C)[C@H]2O)[C@@](C)(OC)C[C@@H](C)C(=O)[C@H](C)[C@H]2N(CCN(C)Cc3cccnc3)C(=O)O[C@]12CC (some centres unmarked) [Example 23] | – | – | – | – | =0.05 | =0.05 | =0.05 | =0.05 |
| CC[C@H]1OC(=O)[C@H](C)C(=O)[C@H](C)[C@@H](OC2O[C@H](C)C[C@H](N(C)C)[C@H]2O)[C@@](C)(OC)C[C@@H](C)C(=O)[C@H](C)[C@H]2N(CCCCn3cnc(-c4cncnc4)c3)C(=O)O[C@]12CC (stereo partly drawn) [Example 25, (3aS,4R,7R,9R,10R,11S,13R,15R,15aR)-3a,4-diethyl-11-methoxy-7,9,11,13,15-pentamethyl-2,6,8,14-tetraoxo-1-[4-(4-pyrimidin-5-yl-1H-imidazol-1-yl)butyl]tetradecahydro-2H-oxacyclotetradecino[4,3-d][1,3]oxazol-10-yl-3,4,6-trideoxy-3-(dimethylamino)-D-xylo-hexopyranoside] | – | – | – | – | =0.05 | =0.05 | =0.05 | =0.05 |
| CC[C@H]1OC(=O)[C@@](C)(F)C(=O)[C@H](C)[C@@H](OC2O[C@H](C)C[C@H](N(C)C)[C@H]2O)[C@@](C)(OC)C[C@@H](C)C(=O)[C@H](C)[C@H]2N(CCCCn3cnc4ncccc43)C(=O)O[C@]12CC (stereo partly drawn) [Example 27, (3aS,4R,7S,9R,10R,11S,13R,15R,15aR)-3a,4-diethyl-7-fluoro-1-[4-(1H-imidazo[4,5-b]pyridin-1-yl)butyl]-11-methoxy-7,9,11,13,15-pentamethyl-2,6,8,14-tetraoxotetradecahydro-2H-oxacyclotetradecino[4,3-d][1,3]oxazol-10-yl-3,4,6-trideoxy-3-(dimethylamino)-D-xylo-hexopyranoside] | – | – | – | – | – | =0.025 | =0.025 | =0.025 |
| CC[C@H]1OC(=O)[C@H](C)C(=O)[C@H](C)[C@@H](OC2O[C@H](C)C[C@H](N(C)C)[C@H]2O)[C@@](C)(OC)C[C@@H](C)C(=O)[C@H](C)[C@H]2N(CCCCn3cnc(-c4ccncc4)c3)C(=O)O[C@]12CC (stereo partly drawn) [Example 28, (3aS,4R,7R,9R,10R,11S,13R,15R,15aR)-3a,4-DIETHYL-11-METHOXY-7,9,11,13,15-PENTAMETHYL-2,6,8,14-TETRAOXO-1-[4-(4-PYRIDIN-4-YL-1H-IMIDAZOL-1-YL)BUTYL]TETRADECAHYDRO-1H-OXACYCLOTETRADECINO[4,3-D][1,3]OXAZOL-10-YL-3,4,6-TRIDEOXY-3-(DIMETHYLAMINO)-D-XYLO-HEXOPYRANOSIDE] | – | – | – | – | =0.05 | =0.05 | =0.05 | =0.05 |
| CC[C@H]1OC(=O)[C@H](C)C(=O)[C@H](C)[C@@H](OC2O[C@H](C)C[C@H](N(C)C)[C@H]2O)[C@@](C)(OC)C[C@@H](C)C(=O)[C@H](C)[C@H]2N(CCCCn3cnc(-c4ccc(C)nc4)c3)C(=O)O[C@]12CC (stereo partly drawn) [Example 29, (3aS,4R,7R,9R,10R,11S,13R,15R,15aR)-3a,4-diethyl-11-methoxy-7,9,11,13,15-pentamethyl-1-{4-[4-(6-methylpyridin-3-yl)-1H-imidazol-1-yl]butyl}-2,6,8,14-tetraoxotetradecahydro-2H-oxacyclotetradecino[4,3-d][1,3]oxazol-10-yl-3,4,6-trideoxy-3-(dimethylamino)-D-xylo-hexopyranoside] | – | – | – | – | =0.05 | =0.05 | =0.05 | =0.05 |
| CC[C@H]1OC(=O)[C@@](C)(F)C(=O)[C@H](C)[C@@H](OC2O[C@H](C)C[C@H](N(C)C)[C@H]2O)[C@@](C)(OC)C[C@@H](C)C(=O)[C@H](C)[C@H]2N(CCCCn3cnc(-c4ccc(C)nc4)c3)C(=O)O[C@]12CC (stereo partly drawn) [Example 30, (3aS,4R,7S,9R,10R,11S,13R,15R,15aR)-3a,4-diethyl-7-fluoro-11-methoxy-7,9,11,13,15-pentamethyl-1-{4-[4-(6-methylpyridin-3-yl)-1H-imidazol-1-yl]butyl}-2,6,8,14-tetraoxotetradecahydro-2H-oxacyclotetradecino[4,3-d][1,3]oxazol-10-yl 3,4,6-trideoxy-3-(dimethylamino)-D-xylo-hexopyranoside] | – | – | – | – | =0.05 | =0.05 | =0.05 | =0.05 |

— patent US7332476B2, “Pyridyl substituted ketolide antibiotics” (Novartis AG, priority 2003, dated 2008)
